# Assays:
# AMPA receptor = assay: MEA recording with pharmacological intervention (NBQX); assay type: cell-based, human; settings: NBQX 10 μM, Hase-1000 samples at week 4, vs DMSO
# Procedure: (§1) MEA recording of 3D-bioprinted mini-brains was performed from week 1 to week 4 after differentiation (day 10 to day 31 after digestion). The samples containing SNaPs were plated on Geltrex-coated 12-well MEA plates (Axion Biosystems, USA) in the differentiation medium. The samples were fed 2-3 times a week with partial medium change. Neuronal activities were measured every week using the Maestro 12-well MEA plate system (Axion Biosystems) for 5 min. After 4 weeks of culture in MEA plate, synaptic contents were tested using pharmacological inhibitors of neurotransmitter receptors. Specifically, neuronal activity was measured for 5 min by adding DMSO control before adding 10 μM of NBQX (Abcam) or 10 μM of D-APV (Abcam). The samples were incubated for 5-10 min, and neuronal activities were assessed again for 5 min. All the MEA data were analyzed using the Axion Integrated Studio 2.4.2 and the Neural Metric Tool (Axion Biosystems).
# NMDA receptor = assay: MEA recording with pharmacological intervention (D-APV); assay type: cell-based, human; settings: D-APV 50 μM (FIG. 8g legend), Hase-1000 samples at week 4, vs DMSO
# Procedure: as §1, with “Specifically, neuronal activity was measured for 5 min by adding DMSO control before adding 10 μM of NBQX (Abcam) or 10 μM of D-APV (Abcam).” left out
burst frequency (AMPA receptor),mean firing rate (AMPA receptor),burst frequency (NMDA receptor),firing (NMDA receptor),SMILES
significantly reduced,significantly reduced,,,"NS(=O)(=O)c1cccc2c1c([N+](=O)[O-])cc1nc(O)c(O)nc12 [NBQX, 2,3-dihydroxy-6-nitro-7-sulfamoyl-benzo(F)quinoxaline]"
,,significantly reduced,significantly reduced,"N[C@H](CCCP(=O)(O)O)C(=O)O [D-APV, D-2-amino-5-phosphonovaleric acid]"

# Reference: patent US20260071187A1, “MOLECULARLY CLEAVABLE BIOINK FORMULATION” (THE BRIGHAM AND WOMEN'S HOSPITAL, INC., priority 2022, published 2026)
